The test system of assay [1] is Rattus norvegicus. Nature of the assay: Inhibition of paw swelling relative to the tebufelone in rat. Value was reported as Carrageenan paw edema index. It counts as functional. Background: In the carrageenan paw model, swelling and tenderness develop within hours.
The target of assay [2] is T1, Prostaglandin G/H synthase 2 (Homo sapiens, UniProt P35354).
T1 sequence (P35354 whole entry): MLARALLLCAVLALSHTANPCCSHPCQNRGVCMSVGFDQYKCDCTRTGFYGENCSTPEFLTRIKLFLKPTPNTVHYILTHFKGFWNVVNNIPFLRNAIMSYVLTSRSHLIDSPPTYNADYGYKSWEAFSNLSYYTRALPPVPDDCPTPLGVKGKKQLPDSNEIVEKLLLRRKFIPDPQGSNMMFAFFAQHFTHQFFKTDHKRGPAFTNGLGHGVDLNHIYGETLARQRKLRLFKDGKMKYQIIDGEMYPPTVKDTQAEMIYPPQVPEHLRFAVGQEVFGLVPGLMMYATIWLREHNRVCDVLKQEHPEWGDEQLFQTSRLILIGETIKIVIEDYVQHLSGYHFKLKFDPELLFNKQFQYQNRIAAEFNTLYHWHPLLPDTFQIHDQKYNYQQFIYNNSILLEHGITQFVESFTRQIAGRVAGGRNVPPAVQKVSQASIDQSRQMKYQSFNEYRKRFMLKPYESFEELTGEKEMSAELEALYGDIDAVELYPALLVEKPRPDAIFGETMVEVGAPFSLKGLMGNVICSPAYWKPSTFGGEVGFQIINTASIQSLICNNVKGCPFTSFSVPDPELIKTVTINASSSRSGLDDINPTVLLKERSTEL
Description: Inhibitory activity against prostaglandin G/H synthase 2 (COX-2)

The species named for assay [3] is Rattus norvegicus. Kind of assay: Analgesic activity in phenylquinone-induced abdominal constriction assay (PAC). It counts as functional, Abdomen. On the set-up: concentration or dose not given beside the values.
Assay [4] deals with T2, Polyunsaturated fatty acid 5-lipoxygenase (Homo sapiens, UniProt P09917).
T2 sequence (P09917 whole entry): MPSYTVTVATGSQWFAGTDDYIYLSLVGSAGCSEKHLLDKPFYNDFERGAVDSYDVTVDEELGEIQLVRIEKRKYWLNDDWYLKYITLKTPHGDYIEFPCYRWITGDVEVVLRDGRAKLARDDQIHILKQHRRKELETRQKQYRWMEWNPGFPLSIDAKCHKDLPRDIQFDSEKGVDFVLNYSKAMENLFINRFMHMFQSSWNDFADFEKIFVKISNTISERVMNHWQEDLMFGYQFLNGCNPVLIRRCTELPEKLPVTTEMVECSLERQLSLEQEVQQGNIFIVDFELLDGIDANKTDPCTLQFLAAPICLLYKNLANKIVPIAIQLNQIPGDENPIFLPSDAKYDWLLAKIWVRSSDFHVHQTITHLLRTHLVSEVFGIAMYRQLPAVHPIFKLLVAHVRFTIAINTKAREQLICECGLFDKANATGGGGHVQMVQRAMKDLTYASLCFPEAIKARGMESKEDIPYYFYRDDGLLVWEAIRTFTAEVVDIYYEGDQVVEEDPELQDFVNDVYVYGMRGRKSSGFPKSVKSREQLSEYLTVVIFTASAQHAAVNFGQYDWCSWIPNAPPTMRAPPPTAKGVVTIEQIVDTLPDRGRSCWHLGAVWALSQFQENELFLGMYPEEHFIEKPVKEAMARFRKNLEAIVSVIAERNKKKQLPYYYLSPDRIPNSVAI
Kind of assay: Inhibition of 5-Lipoxygenase (5-LOX).

Assay [5] concerns the target Prostaglandin G/H synthase 1 (Homo sapiens, UniProt P23219).
Description: Inhibitory activity against prostaglandin G/H synthase 1 (COX-1)

The IC50 is the concentration that gives 50% inhibition. The Inhibition is the change of the read-out against control, counted positive when it falls.

Chain of Prostaglandin G/H synthase 1 (P23219 whole entry): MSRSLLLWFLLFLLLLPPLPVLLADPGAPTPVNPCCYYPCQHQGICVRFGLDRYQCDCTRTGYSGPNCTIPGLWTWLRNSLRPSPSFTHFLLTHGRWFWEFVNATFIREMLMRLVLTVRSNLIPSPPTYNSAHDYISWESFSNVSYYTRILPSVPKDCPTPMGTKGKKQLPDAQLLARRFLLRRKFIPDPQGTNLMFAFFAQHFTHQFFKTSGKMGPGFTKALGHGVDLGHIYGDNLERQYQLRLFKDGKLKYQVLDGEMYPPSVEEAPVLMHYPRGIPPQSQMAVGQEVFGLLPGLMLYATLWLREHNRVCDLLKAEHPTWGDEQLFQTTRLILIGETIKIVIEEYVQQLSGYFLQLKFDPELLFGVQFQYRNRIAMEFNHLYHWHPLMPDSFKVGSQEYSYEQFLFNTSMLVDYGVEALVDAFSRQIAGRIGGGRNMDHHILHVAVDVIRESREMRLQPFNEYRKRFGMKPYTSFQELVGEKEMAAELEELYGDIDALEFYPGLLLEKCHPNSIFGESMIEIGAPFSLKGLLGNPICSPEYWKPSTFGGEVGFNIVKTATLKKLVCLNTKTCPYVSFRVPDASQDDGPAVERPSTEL

Consider `CC(C)(C)c1cc(-c2csc(N)n2)cc2c1OCC2(C)C`, for which the CPE index in assay [1] is recorded as 0.26.

For `CC(C)(C)c1cc(/C=C\c2cccs2)cc2c1OCC2(C)C`, the IC50 in assay [2] was 35 nM; in assay [4], 6000 nM; in assay [5], 20 nM. For the same molecule, the Inhibition in assay [3] is 13%. The CPE index in assay [1] was found to be 0.77.

In assay [3], `CCCN(C)C(=O)c1cc(C(C)(C)C)c2c(c1)C(C)(C)CO2` came in with an Inhibition of 36%. This molecule came in with a CPE index in assay [1] of 0.91.

Turning to `CCCNC(=O)Nc1cc(C(C)(C)C)c2c(c1)C(C)(C)CO2`, in assay [1], the CPE index came out at 0.41.

The molecule `CC(C)(C)c1cc(C(=O)N2CCSCC2)cc2c1OCC2(C)C` registered an Inhibition in assay [3] of 29%. This molecule also came in with a CPE index in assay [1] of 0.71.

With `CC(C)(C)c1cc(C(=O)N2CCCCC2)cc2c1OCC2(C)C`, the Inhibition in assay [3] stood at 34%. The CPE index in assay [1] is listed as 0.52.

Turning to `CC(C)(C)c1cc(C(=O)NCCC2CC2)cc2c1OCC2(C)C`, the CPE index in assay [1] is 0.06.

As to `CCCN(C(=O)c1cc(C(C)(C)C)c2c(c1)C(C)(C)CO2)C1CC1`, the values for the IC50 in assay [2] and in assay [5] were 4000 nM and 4500 nM, respectively. This molecule also showed a CPE index in assay [1] of 1.41.

With `CC(C)(C)c1cc(C(=O)NCC2CC2)cc2c1OCC2(C)C`, the CPE index in assay [1] was 0.44.

`CC(C)(C)c1cc(-c2cn3cc[s+]([O-])c3n2)cc2c1OCC2(C)C` (stereo unspecified) yielded a CPE index in assay [1] of 0.96.

The molecule `CC(C)(C)c1cc(-c2cocn2)cc2c1OCC2(C)C` showed a CPE index in assay [1] of 0.19.

Take `CCN(C(=O)c1cc(C(C)(C)C)c2c(c1)C(C)(C)CO2)C1CC1`: the CPE index in assay [1] turned out to be 1.14.

Regarding `CC(C)NC(=O)c1cc(C(C)(C)C)c2c(c1)C(C)(C)CO2`, the Inhibition in assay [3] is recorded as 43%. The molecule also came in with a CPE index in assay [1] of 1.09.

With `CC(C)(C)c1cc(-c2cscn2)cc2c1OCC2(C)C`, in assay [3], the Inhibition stood at 59%. Moreover, the CPE index in assay [1] turned out to be 1.53.

Consider `CC(C)(C)c1cc(C(=O)N2CCCC2)cc2c1OCC2(C)C`, for which the CPE index in assay [1] is listed as 0.78.

On to `CC(C)(C)c1cc(C(=O)NC2=NCCS2)cc2c1OCC2(C)C`, for which the Inhibition in assay [3] is on record as 65%. In assay [1], the CPE index stood at 0.81.

Take `CC(C)(C)c1cc(/C=C(/C(=O)O)c2cccs2)cc2c1OCC2(C)C`: the Inhibition in assay [3] is 19%. In assay [1], this molecule displayed a CPE index of 0.76.

As for `CC(C)(C)c1cc(C(=O)NC2CCCC2)cc2c1OCC2(C)C`, in assay [1], the CPE index is given as 0.

Molecule `CC(C)(C)c1cc(C(=O)Nc2ccccc2)cc2c1OCC2(C)C` displayed a CPE index in assay [1] of 0.01.

As to `CCNC(=O)Nc1cc(C(C)(C)C)c2c(c1)C(C)(C)CO2`, in assay [3], the Inhibition is on record as 36%. For the same molecule, the CPE index in assay [1] was determined as 0.73.

In the case of `CC(C)(C)c1cc(C(=O)NCCO)cc2c1OCC2(C)C`, in assay [1], the CPE index worked out at 0.33.

On to `CC(C)(C)c1cc(C(=O)c2ccoc2)cc2c1OCC2(C)C`, for which the Inhibition in assay [3] is 3%. Moreover, the CPE index in assay [1] was found to be 0.68.

Turning to `CC(C)(C)c1cc(C(=O)Nc2nccs2)cc2c1OCC2(C)C`, the CPE index in assay [1] came out at 0.49.

In assay [1], `CC(C)(C)c1cc(C(=O)O)cc2c1OCC2(C)C` showed a CPE index of 0.47.

As to `CC(C)(C)c1cc(Nc2ccccc2C(=O)O)cc2c1OCC2(C)C`, the IC50 in assay [2] is 4000 nM; in assay [5], 2500 nM. In assay [1], this molecule showed a CPE index of 0.78.

`CC(C)(C)c1cc(C(=N)N2CCCC2)cc2c1OCC2(C)C`: the results for the IC50 in assay [2], in assay [4] and in assay [5] were more than 100000 nM, 30000 nM and more than 100000 nM, respectively. For the same molecule, the Inhibition in assay [3] turned out to be 0%. Also, the CPE index in assay [1] was 0.8.

In the case of `Cn1cccc1C(=O)c1cc(C(C)(C)C)c2c(c1)C(C)(C)CO2`, the IC50 in assay [2] came out at 45 nM; in assay [5] it was 35 nM. In assay [3], this molecule had an Inhibition of 57%. Moreover, in assay [1], the CPE index is 1.24.

Take `COC(=O)c1cc(C(C)(C)C)c2c(c1)C(C)(C)CO2`: in assay [1], the CPE index was 0.16.

As for `CCCCCNC(=O)c1cc(C(C)(C)C)c2c(c1)C(C)(C)CO2`, the results for the IC50 in assay [2] and in assay [5] were 250 nM and 2000 nM, respectively. In addition, the CPE index in assay [1] is listed as 0.16.

For the molecule `CC(C)(C)c1cc(-c2cccs2)cc2c1OCC2(C)C`, the IC50 in assay [2] amounted to 70 nM; in assay [4], 9000 nM; in assay [5], 200 nM. Further, the Inhibition in assay [3] came out at 52%. In assay [1], this molecule had a CPE index of 0.92.

Turning to `CC(C)(C)c1cc(C(=O)c2nccs2)cc2c1OCC2(C)C`, in assay [3], the Inhibition is 28%. The molecule further came in with a CPE index in assay [1] of 0.75.

As to `CCCCNC(=O)c1cc(C(C)(C)C)c2c(c1)C(C)(C)CO2`, the IC50 in assay [2] worked out at 220 nM; in assay [5], 2500 nM. In assay [1], the CPE index was 0.46.

Take `CC(C)(C)c1cc(C(=O)c2ccco2)cc2c1OCC2(C)C`: in assay [3], the Inhibition is 24%. Moreover, the CPE index in assay [1] stood at 0.7.

As for `CC(=O)Nc1cc(C(C)(C)C)c2c(c1)C(C)(C)CO2`, the IC50 in assay [2] and in assay [5] was 3500 nM each time. This molecule came in with an Inhibition in assay [3] of 22%. In assay [1], the CPE index is given as 0.66.

On to `CN(C)C(=N)c1cc(C(C)(C)C)c2c(c1)C(C)(C)CO2`, for which the CPE index in assay [1] was determined as 0.47.

In assay [1], `Cc1nc(-c2cc(C(C)(C)C)c3c(c2)C(C)(C)CO3)no1` showed a CPE index of 0.83.

`CC1(C)CC(c2cc(C(C)(C)C)c3c(c2)C(C)(C)CO3)=NO1`: the IC50 in assay [2] was 200 nM; in assay [5], 70 nM. The Inhibition in assay [3] is reported as 80%. The CPE index in assay [1] worked out at 0.56.

Regarding `CC(C)(C)c1cc(-c2cn3ccsc3n2)cc2c1OCC2(C)C`, the IC50 in assay [2] turned out to be 15 nM; in assay [4], 10000 nM; in assay [5], 75 nM. Also, in assay [3], the Inhibition amounted to 68%. In addition, the CPE index in assay [1] stood at 0.81.

For the molecule `CN(C)CCNC(=O)c1cc(C(C)(C)C)c2c(c1)C(C)(C)CO2`, the CPE index in assay [1] amounted to 0.

On to `CC(C)(C)c1cc(C(=O)NC2CC2)cc2c1OCC2(C)C`, for which the IC50 is 550 nM in assay [2], more than 50000 nM in assay [4] and 290 nM in assay [5]. In assay [3], the Inhibition was 20%. Moreover, in assay [1], the CPE index was 0.68.

Regarding `CC(C)(C)c1cc(-c2csc(N=C(N)N)n2)cc2c1OCC2(C)C`, the figures for the IC50 in assay [2] and in assay [5] were 9000 nM and 15000 nM, respectively. The molecule also came in with an Inhibition in assay [3] of 77%. Besides, the CPE index in assay [1] amounted to 1.38.

As for `CC(C)(C)c1cc(-c2ccco2)cc2c1OCC2(C)C`, in assay [3], the Inhibition is 7%. Besides, the CPE index in assay [1] was 0.93.

In turn, `CC(C)(C)c1cc(C(=O)c2ccsc2)cc2c1OCC2(C)C` had an Inhibition in assay [3] of 40%. For the same molecule, the CPE index in assay [1] is recorded as 0.62.

Molecule `CC(C)(C)c1cc(C(=O)NC2CCC2)cc2c1OCC2(C)C` showed a CPE index in assay [1] of 0.

Take `Cc1cc(/C=C\c2cc(C(C)(C)C)c3c(c2)C(C)(C)CO3)[nH]n1`: the Inhibition in assay [3] turned out to be 35%. Further, in assay [1], the CPE index is 0.56.

With `CC(C)(C)c1cc(C=C2CCOC2=O)cc2c1OCC2(C)C`, the IC50 is 3.5 nM in assay [2], 4000 nM in assay [4] and 45 nM in assay [5]. The molecule further came in with a CPE index in assay [1] of 0.93.

In turn, `CC(C)(C)c1cc(C(=O)NCC(O)CO)cc2c1OCC2(C)C` (stereo unspecified) had a CPE index in assay [1] of 0.51.

Regarding `CCCNC(=O)c1cc(C(C)(C)C)c2c(c1)C(C)(C)CO2`, the values for the IC50 in assay [2], in assay [4] and in assay [5] were 950 nM, more than 50000 nM and 550 nM, respectively. In addition, the Inhibition in assay [3] is recorded as 63%. Further, in assay [1], the CPE index was 1.17.

With `COCCNC(=O)c1cc(C(C)(C)C)c2c(c1)C(C)(C)CO2`, the IC50 in assay [2] came out at 30 nM; in assay [4], 50000 nM; in assay [5], 1000 nM. For the same molecule, the Inhibition in assay [3] worked out at 84%. Moreover, in assay [1], the CPE index was 1.47.

For the molecule `CC(C)(C)c1cc(C(=O)c2cccs2)cc2c1OCC2(C)C`, the IC50 worked out at 38 nM in assay [2], 10000 nM in assay [4] and 45 nM in assay [5]. The molecule further gave an Inhibition in assay [3] of 34%. In assay [1], this molecule came in with a CPE index of 0.58.

Regarding `CC(C)(C)c1cc(/C=C\c2cccnc2)cc2c1OCC2(C)C`, the Inhibition in assay [3] was found to be 45%. In assay [1], the CPE index stood at 0.78.
